We go through eleven compounds from patent publication EP4678638A1, “NEW E3 UBIQUITIN LIGASE LIGAND, PROTEIN DEGRADATION AGENT AND USE THEREOF” (priority 2023, dated 2024).

One experiment has as its system H1975. Briefly: CCK-8 proliferation, NCI-H1975 (H1975). The note with it: Homo sapiens, NCI-H1975; CCK-8; 96 hours; read-out: Inhibitory activity (IC50) on tumor cell proliferation, H1975. Format: cell-based, Human. Put shortly: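 Cells seeded, then after 24 h treated with 10 concentrations (top 10 µM, 5-fold serial dilution) for a line-specific time at 37°C, 5% CO2. Viability read by CCK-8; IC50 fitted from growth-inhibition curves.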

For a further experiment, the system named is EGFR. Briefly: Western blot degradation of EGFR (H1975 Cell). Format: cell-based, Human. The conditions noted are these: Table D2. Put shortly:
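Quantification by ImageJ densitometry of Western blot bands: DC50 is the fitted concentration halving band intensity relative to DMSO. Percent remaining uses internal-control normalization, and degradation rate is its complement.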
A general note: A western blot detects proteins with antibodies after separation by electrophoresis.

Consider `O=C1CCN(c2ccc(CN3CCN(C4CCN(c5ccc(-c6cc(F)c7c(c6)C(=O)N(C(C(=O)Nc6nccs6)c6ncn8c6CCC8)C7)cc5)CC4)CC3)nc2)C(=O)N1` (stereo not shown) [GT-06246, 2-(6,7-dihydro-5H-pyrrolo[1,2-c]imidazol-1-yl)-2-(6-(4-(4-(4-((5-(2,4-dioxotetrahydropyrimidin-1(2H)-yl)pyridin-2-yl)methyl)piperazin-1-yl)piperidin-1-yl)phenyl)-4-fluoro-1-oxoisoindolin-2-yl)-N-(thiazol-2-yl)acetamide], for which the IC50 with H1975 lay in the range of 1 to 10 nM. The “Degradation of substrate protein EGFR (substrate protein remaining %)” value (shortened to “Degradation … (substrate protein remaining %)”) in the experiment on EGFR is given as “A (A is defined as 0% ≤ substrate protein remaining % ≤ 80%)”.
Taken in the same sequence, the figures for `O=C1CCC(c2ccc(CN3CCN(C4CCN(c5ccc(-c6cc(F)c7c(c6)C(=O)N(C(C(=O)Nc6nccs6)c6ncn8c6CCC8)C7)cc5)CC4(F)F)CC3)cc2)C(=O)N1` (stereo not shown) [GT-06317, 2-(6,7-dihydro-5H-pyrrolo[1,2-c]imidazol-1-yl)-2-(6-(4-(4-(4-(4-(2,6-dioxopiperidin-3-yl)benzyl)piperazin-1-yl)-3,3-difluoropiperidin-1-yl)phenyl)-4-fluoro-1-oxoisoindolin-2-yl)-N-(thiazol-2-yl)acetamide] were 10 to 50 nM and “A (A is defined as 0% ≤ substrate protein remaining % ≤ 80%)”.
For `O=C1CCN(c2ccc(CN3CCN(C4CCN(c5ccc(-c6cc(F)c7c(c6)C(=O)N(C(C(=O)Nc6nccs6)c6ncn8c6CCC8)C7)cc5)CC4(F)F)CC3)cc2)C(=O)N1` (stereo not shown) [GT-06318, 2-(6,7-dihydro-5H-pyrrolo[1,2-c]imidazol-1-yl)-2-(6-(4-(4-(4-(4-(2,4-dioxotetrahydropyrimidin-1(2H)-yl)benzyl)piperazin-1-yl)-3,3-difluoropiperidin-1-yl)phenyl)-4-fluoro-1-oxoisoindolin-2-yl)-N-(thiazol-2-yl)acetamide] the same measures were 10 to 50 nM and “A (A is defined as 0% ≤ substrate protein remaining % ≤ 80%)”.
Regarding `O=C1CCN(c2ccc(CN3CCN(C4CCN(c5ccc(-c6cc(F)c7c(c6)C(=O)N(C(C(=O)Nc6nccs6)c6ncn8c6CCC8)C7)cc5)CC4(F)F)CC3)nc2)C(=O)N1` (stereo not shown) [GT-06319, 2-(6,7-dihydro-5H-pyrrolo[1,2-c]imidazol-1-yl)-2-(6-(4-(4-(4-((5-(2,4-dioxotetrahydropyrimidin-1(2H)-yl)pyridin-2-yl)methyl)piperazin-1-yl)-3,3-difluoropiperidin-1-yl)phenyl)-4-fluoro-1-oxoisoindolin-2-yl)-N-(thiazol-2-yl)acetamide], the IC50 in the experiment with H1975 lay in the range of 1 to 10 nM. Besides, the “Degradation … (substrate protein remaining %)” value with EGFR was “A (A is defined as 0% ≤ substrate protein remaining % ≤ 80%)”.
Taken in the same sequence, the figures for `O=C1CCC(Nc2cccc(CN3CCN(C4CCN(c5ccc(-c6cc(F)c7c(c6)C(=O)N(C(C(=O)Nc6nccs6)c6ncn8c6CCC8)C7)cc5)CC4(F)F)CC3)c2)C(=O)N1` (stereo not shown) [GT-06321, 2-(6,7-dihydro-5H-pyrrolo[1,2-c]imidazol-1-yl)-2-(6-(4-(4-(4-(3-((2,6-dioxopiperidin-3-yl)amino)benzyl)piperazin-1-yl)-3,3-difluoropiperidin-1-yl)phenyl)-4-fluoro-1-oxoisoindolin-2-yl)-N-(thiazol-2-yl)acetamide] were 10 to 50 nM and “A (A is defined as 0% ≤ substrate protein remaining % ≤ 80%)”.
Taken in the same sequence, the figures for `O=C1CCC(c2ccc(CN3CCC(N4CCN(c5ccc(-c6cc(F)c7c(c6)C(=O)N(C(C(=O)Nc6nccs6)c6ncn8c6CCC8)C7)cc5)CC4)CC3)cc2)C(=O)N1` (stereo not shown) [GT-06326, 2-(6,7-dihydro-5H-pyrrolo[1,2-c]imidazol-1-yl)-2-(6-(4-(4-(1-(4-(2,6-dioxopiperidin-3-yl)benzyl)piperidin-4-yl)piperazin-1-yl)phenyl)-4-fluoro-1-oxoisoindolin-2-yl)-N-(thiazol-2-yl)acetamide] were 10 to 50 nM and “A (A is defined as 0% ≤ substrate protein remaining % ≤ 80%)”.
Taken in the same sequence, the figures for `O=C1CCN(c2ccc(CN3CCC(N4CCN(c5ccc(-c6cc(F)c7c(c6)C(=O)N(C(C(=O)Nc6nccs6)c6ncn8c6CCC8)C7)cc5)CC4)CC3)nc2)C(=O)N1` (stereo not shown) [GT-06329, 2-(6,7-dihydro-5H-pyrrolo[1,2-c]imidazol-1-yl)-2-(6-(4-(4-(1-((5-(2,4-dioxotetrahydropyrimidin-1(2H)-yl)pyridin-2-yl)methyl)piperidin-4-yl)piperazin-1-yl)phenyl)-4-fluoro-1-oxoisoindolin-2-yl)-N-(thiazol-2-yl)acetamide] were 1 to 10 nM and “A (A is defined as 0% ≤ substrate protein remaining % ≤ 80%)”.
Take `O=C1CCN(c2ccc(CN3CCC(N4CCN(c5ccc(-c6cc(F)c7c(c6)C(=O)N(C(C(=O)Nc6nccs6)c6ncn8c6CCC8)C7)cc5)CC4)CC3)cn2)C(=O)N1` (stereo not shown) [GT-06330, 2-(6,7-dihydro-5H-pyrrolo[1,2-c]imidazol-1-yl)-2-(6-(4-(4-(1-((6-(2,4-dioxotetrahydropyrimidin-1(2H)-yl)pyridin-3-yl)methyl)piperidin-4-yl)piperazin-1-yl)phenyl)-4-fluoro-1-oxoisoindolin-2-yl)-N-(thiazol-2-yl)acetamide]: in the experiment with H1975, the IC50 fell in the range of 1 to 10 nM. The “Degradation … (substrate protein remaining %)” value in the experiment on EGFR is given as “A (A is defined as 0% ≤ substrate protein remaining % ≤ 80%)”.
Taken in the same sequence, the figures for `O=C1CCC(Nc2cccc(CN3CCC(N4CCN(c5ccc(-c6cc(F)c7c(c6)C(=O)N(C(C(=O)Nc6nccs6)c6ncn8c6CCC8)C7)cc5)CC4)CC3)c2)C(=O)N1` (stereo not shown) [GT-06331, 2-(6,7-dihydro-5H-pyrrolo[1,2-c]imidazol-1-yl)-2-(6-(4-(4-(1-(3-((2,6-dioxopiperidin-3-yl)amino)benzyl)piperidin-4-yl)piperazin-1-yl)phenyl)-4-fluoro-1-oxoisoindolin-2-yl)-N-(thiazol-2-yl)acetamide] were 10 to 50 nM and “A (A is defined as 0% ≤ substrate protein remaining % ≤ 80%)”.
Taken in the same sequence, the figures for `CN(Cc1ccnc(N2CCC(=O)NC2=O)c1)C1CCN(c2ccc(-c3cc(F)c4c(c3)C(=O)N(C(C(=O)Nc3nccs3)c3ncn5c3CCC5)C4)cc2)CC1` (stereo not shown) [GT-07383, 2-(6,7-dihydro-5H-pyrrolo[1,2-c]imidazol-1-yl)-2-(6-(4-(4-(((2-(2,4-dioxotetrahydropyrimidin-1(2H)-yl)pyridin-4-yl)methyl)(methyl)amino)piperidin-1-yl)phenyl)-4-fluoro-1-oxoisoindolin-2-yl)-N-(thiazol-2-yl)acetamide] were 1 to 10 nM and “A (A is defined as 0% ≤ substrate protein remaining % ≤ 80%)”.
For the compound `O=C1CCN(c2cc(CN3C[C@H]4C[C@@H]3CN4c3ccc(-c4cc(F)c5c(c4)C(=O)N(C(C(=O)Nc4nccs4)c4ncn6c4CCC6)C5)cc3)c(F)cn2)C(=O)N1` (stereo partly drawn) [GT-07386, 2-(6,7-dihydro-5H-pyrrolo[1,2-c]imidazol-1-yl)-2-(6-(4-((1R,4R)-5-((2-(2,4-dioxotetrahydropyrimidin-1(2H)-yl)-5-fluoropyridin-4-yl)methyl)-2,5-diazabicyclo[2.2.1]heptan-2-yl)phenyl)-4-fluoro-1-oxoisoindolin-2-yl)-N-(thiazol-2-yl)acetamide], the IC50 with H1975 lay within 1 to 10 nM. Besides, the “Degradation … (substrate protein remaining %)” value with EGFR is given as “A (A is defined as 0% ≤ substrate protein remaining % ≤ 80%)”.
